Source: the NIST ThermoML archive (doi:10.1016/j.jct.2009.11.011)

Experiments:
[1] = Liquid; for mass density: Vibrating tube method; for vapor or sublimation pressure: Ebulliometric method (Recirculating still)
[2] = molar heat capacity at saturation pressure; conditions: Liquid

c1ccc2c(c1)ccc1cccnc12 [benzo[h]quinoline]
Conditions	mass density [kg/m3]	molar heat capacity [J/K/mol]
[1], 348.13 K	1121.1	–
[1], 373.12 K	1104.9	–
[1], 398.12 K	1087.2	–
[1], 423.11 K	1068.1	–
[1], 448.11 K	1051.1	–
[1], 473.11 K	1030.8	–
[1], 498.11 K	1011.6	–
[1], 523.11 K	992.8	–
[2], 400 K	–	307.8
[2], 410 K	–	312.9
[2], 420 K	–	317.9
[2], 430 K	–	323.1
[2], 440 K	–	328.2
[2], 450 K	–	333.3
[2], 460 K	–	338.4
[2], 470 K	–	343.5
[2], 480 K	–	348.5
[2], 490 K	–	353.5
[2], 500 K	–	358.4
[2], 510 K	–	363.3
[2], 520 K	–	368.1
[2], 530 K	–	372.7
[2], 540 K	–	377.2
[2], 550 K	–	381.6
[2], 560 K	–	385.8
[2], 570 K	–	389.7
[2], 580 K	–	393.4
[2], 590 K	–	396.9
[2], 600 K	–	400

c1ccc2c(c1)cnc1ccccc12 [phenanthridine]
Conditions	mass density [kg/m3]	molar heat capacity [J/K/mol]	vapor or sublimation pressure [kPa]
[1], 423.11 K	1081.8	–	–
[1], 448.11 K	1062.7	–	–
[1], 473.11 K	1043.7	–	–
[1], 473.89 K	–	–	2
[1], 481.92 K	–	–	2.666
[1], 493.84 K	–	–	4
[1], 498.11 K	1023.7	–	–
[1], 502.72 K	–	–	5.333
[1], 515.93 K	–	–	7.999
[1], 523.11 K	1003.9	–	–
[1], 525.85 K	–	–	10.67
[1], 533.86 K	–	–	13.33
[1], 542.18 K	–	–	16.66
[1], 548.11 K	983.7	–	–
[1], 549.09 K	–	–	19.93
[1], 558.18 K	–	–	25.02
[1], 567.34 K	–	–	31.18
[1], 576.54 K	–	–	38.56
[1], 585.79 K	–	–	47.38
[1], 595.1 K	–	–	57.82
[1], 604.47 K	–	–	70.12
[1], 613.89 K	–	–	84.53
[1], 623.35 K	–	–	101.33
[2], 400 K	–	314.5	–
[2], 410 K	–	319.1	–
[2], 420 K	–	323.8	–
[2], 430 K	–	328.3	–
[2], 440 K	–	332.9	–
[2], 450 K	–	337.4	–
[2], 460 K	–	341.8	–
[2], 470 K	–	346.2	–
[2], 480 K	–	350.6	–
[2], 490 K	–	354.9	–
[2], 500 K	–	359.2	–
[2], 510 K	–	363.4	–
[2], 520 K	–	367.6	–
[2], 530 K	–	371.7	–
[2], 540 K	–	375.7	–
[2], 550 K	–	379.7	–
[2], 560 K	–	383.7	–
[2], 570 K	–	387.6	–
[2], 580 K	–	391.4	–
[2], 590 K	–	395.2	–
[2], 600 K	–	398.8	–
